Where two headings read alike, the source gives them in different places.
Tests used:
IKKε = IKKε (Homo sapiens (Human), UniProt Q14164); test: Lanthascreen TR-FRET kinase inhibition assay, IKKε; assay type: biochemical
Procedure: (§1) Compounds of the invention (synthesised as described below) were tested for activity against the IKKε and TBK-1 enzyme as follows:
(§2) Inhibitions studies were performed using a time-resolved fluorescence-based Lanthascreen™ assay. Phosphorylation of a fluorescein-labelled substrate peptide is measured using terbium-labeled phosphospecific antibodies.
(§3) Kinase inhibition assays (10 μL) were performed at 20° C. in 384-well plate format. […] The final reaction conditions contained 400 nM fluorescein-IkBα substrate ([…]), 20 μM ATP, 2 nM or 8 nM IKKε or TBK1 kinase respectively, and 3% DMSO in kinase assay buffer consisting of 50 mM HEPES (pH 7.5), 10 mM MgCl, 1 mM EGTA, 0.01% Brij-35.
(§4) Compound dilutions were prepared from 10 mM DMSO stocks by dilution into DMSO.
(§5) The kinase phosphorylation assay was initiated by the addition of the kinase and the reaction was allowed to proceed for 1 h or 2.5 h for IKKε and TBK-1 kinase respectively.

TBK1 = TBK1 (Homo sapiens (Human), UniProt Q9UHD2); test: Lanthascreen TR-FRET kinase inhibition assay, TBK1; assay type: biochemical; settings: 20 μM ATP (apparent Km), 8 nM kinase, 2.5 h
Procedure: as §1, §2, §3, §4, §5

[1] = 20 μM ATP (apparent Km), 2 nM kinase, 1 h

Chain of IKKε (Q14164 whole entry): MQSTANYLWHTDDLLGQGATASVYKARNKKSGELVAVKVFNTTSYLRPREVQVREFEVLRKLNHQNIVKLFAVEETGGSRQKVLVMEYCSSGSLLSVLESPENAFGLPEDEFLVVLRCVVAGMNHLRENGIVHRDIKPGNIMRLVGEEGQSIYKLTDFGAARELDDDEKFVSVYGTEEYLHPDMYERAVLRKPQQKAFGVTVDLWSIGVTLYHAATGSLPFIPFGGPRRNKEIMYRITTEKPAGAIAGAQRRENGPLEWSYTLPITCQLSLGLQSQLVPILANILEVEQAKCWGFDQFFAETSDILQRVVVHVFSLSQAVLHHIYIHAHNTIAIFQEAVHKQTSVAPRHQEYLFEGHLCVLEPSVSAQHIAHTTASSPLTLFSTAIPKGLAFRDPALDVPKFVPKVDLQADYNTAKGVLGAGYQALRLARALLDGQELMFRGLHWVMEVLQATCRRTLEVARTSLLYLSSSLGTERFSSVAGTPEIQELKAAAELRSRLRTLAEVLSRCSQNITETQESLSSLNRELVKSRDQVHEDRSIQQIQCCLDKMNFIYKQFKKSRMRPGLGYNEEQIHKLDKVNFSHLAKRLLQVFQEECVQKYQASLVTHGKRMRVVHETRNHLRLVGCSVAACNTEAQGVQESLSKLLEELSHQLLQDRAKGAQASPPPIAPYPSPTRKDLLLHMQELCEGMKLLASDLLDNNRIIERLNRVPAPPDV
Chain of TBK1 (Q9UHD2 whole entry): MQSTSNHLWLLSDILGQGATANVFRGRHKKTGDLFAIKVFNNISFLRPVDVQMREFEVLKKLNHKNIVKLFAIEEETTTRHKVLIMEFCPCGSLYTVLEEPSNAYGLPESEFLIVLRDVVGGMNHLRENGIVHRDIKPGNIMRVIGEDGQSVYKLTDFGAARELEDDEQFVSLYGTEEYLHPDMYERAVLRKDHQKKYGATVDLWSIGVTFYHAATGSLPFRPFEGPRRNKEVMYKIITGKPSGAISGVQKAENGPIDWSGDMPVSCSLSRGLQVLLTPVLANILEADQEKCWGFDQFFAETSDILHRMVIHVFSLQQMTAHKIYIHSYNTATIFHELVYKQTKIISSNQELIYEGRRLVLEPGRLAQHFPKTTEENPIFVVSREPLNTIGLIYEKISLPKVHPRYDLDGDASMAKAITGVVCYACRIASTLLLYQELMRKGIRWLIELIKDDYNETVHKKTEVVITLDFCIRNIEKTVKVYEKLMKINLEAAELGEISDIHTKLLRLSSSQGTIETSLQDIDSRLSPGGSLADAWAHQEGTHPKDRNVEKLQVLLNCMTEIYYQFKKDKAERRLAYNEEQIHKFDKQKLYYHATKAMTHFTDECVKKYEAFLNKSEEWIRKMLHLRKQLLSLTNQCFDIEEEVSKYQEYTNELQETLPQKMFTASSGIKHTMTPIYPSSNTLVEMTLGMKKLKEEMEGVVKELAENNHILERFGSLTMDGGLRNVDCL

| IC50 (IKKε; [1]) | IC50 (TBK1) | IC50 (IKKε) | Compound |
| --- | --- | --- | --- |
| < 100 nM | < 100 nM |  | N#Cc1cc(-c2ccnc(Nc3cnc(N4CCOCC4)nc3)n2)cnc1N1CC[C@H](F)C1 [DMX-20, 2-((S)-3-Fluoro-pyrrolidin-1-yl)-5-[2-(2-morpholin-4-yl-pyrimidin-5-ylamino)-pyrimidin-4-yl]-nicotinonitrile] |
| < 30 nM | < 30 nM |  | COCCN(C)CC(=O)Nc1ccc(Nc2nccc(-c3cnc(N4CC[C@H](F)C4)c(C#N)c3)n2)cn1 [DMX-21, N-(5-{4-[5-Cyano-6-((S)-3-fluoro-pyrrolidin-1-yl)-pyridin-3-yl]-pyrimidin-2-ylamino}-pyridin-2-yl)-2-[(2-methoxy-ethyl)-methyl-amino]-acetamide] |
| < 15 nM | < 30 nM |  | CC(C)(O)CNc1ccc(Nc2nccc(-c3cnc(N4CC[C@H](F)C4)c(C#N)c3)n2)cn1 [DMX-22, 2-((S)-3-Fluoro-pyrrolidin-1-yl)-5-{2-[6-(2-hydroxy-2-methyl-propylamino)-pyridin-3-ylamino]-pyrimidin-4-yl}-nicotinonitrile] |
| < 30 nM | < 30 nM |  | CC(C)N1CCN(CC(=O)Nc2ccc(Nc3nccc(-c4cnc(N5CC[C@H](F)C5)c(C#N)c4)n3)cn2)CC1 [DMX-23, N-(5-{4-[5-Cyano-6-((S)-3-fluoro-pyrrolidin-1-yl)-pyridin-3-yl]-pyrimidin-2-ylamino}-pyridin-2-yl)-2-(4-isopropyl-piperazin-1-yl)-acetamide] |
| < 15 nM | < 15 nM |  | CN1CCN(c2ccc(Nc3nccc(-c4cnc(N5CC[C@H](F)C5)c(C#N)c4)n3)cn2)CC1 [DMX-24, 2-((S)-3-Fluoro-pyrrolidin-1-yl)-5-{2-[6-(4-methyl-piperazin-1-yl)-pyridin-3-ylamino]-pyrimidin-4-yl}-nicotinonitrile] |
| < 15 nM | < 30 nM |  | N#Cc1cc(-c2ccnc(Nc3ccc(N4CCNCC4)nc3)n2)cnc1N1CC[C@H](F)C1 [DMX-25, 2-((S)-3-Fluoro-pyrrolidin-1-yl)-5-[2-(6-piperazin-1-yl-pyridin-3-ylamino)-pyrimidin-4-yl]-nicotinonitrile] |
| < 100 nM | < 30 nM |  | C[C@@H]1CN(c2ccc(Nc3nccc(-c4cnc(N5CC[C@H](O)C5)c(C#N)c4)n3)cn2)CCN1 [DMX-26, 2-((S)-3-Hydroxy-pyrrolidin-1-yl)-5-{2-[6-((R)-3-methyl-piperazin-1-yl)-pyridin-3-ylamino]-pyrimidin-4-yl}-nicotinonitrile] |
|  | < 30 nM | < 30 nM | N#Cc1cc(-c2ccnc(Nc3ccc(NCCO)nc3)n2)cnc1N1CC[C@H](F)C1 [DMX-27, 2-((S)-3-Fluoro-pyrrolidin-1-yl)-5-{2-[6-(2-hydroxy-ethylamino)-pyridin-3-ylamino]-pyrimidin-4-yl}-nicotinonitrile] |
| < 15 nM | < 15 nM |  | CN1CCC(NC(=O)c2ccc(Nc3ncc(F)c(-c4cnc(N5CC[C@H](F)C5)c(C#N)c4)n3)cc2)CC1 [DMX-28, 4-{4-[5-Cyano-6-((S)-3-fluoro-pyrrolidin-1-yl)-pyridin-3-yl]-5-fluoro-pyrimidin-2-ylamino}-N-(1-methyl-piperidin-4-yl)-benzamide] |
| < 30 nM | < 30 nM |  | N#Cc1cc(-c2ccnc(Nc3ccc(NC(=O)CN4CCC(O)CC4)nc3)n2)cnc1N1CC[C@H](F)C1 [DMX-29, N-(5-{4-[5-Cyano-6-((S)-3-fluoro-pyrrolidin-1-yl)-pyridin-3-yl]-pyrimidin-2-ylamino}-pyridin-2-yl)-2-(4-hydroxy-piperidin-1-yl)-acetamide] |

More lines, now with the values behind:

| Compound | IC50 (IKKε; [1]) | IC50 (TBK1) | IC50 (IKKε) |
| --- | --- | --- | --- |
| CN1CCC(NC(=O)c2cccc(Nc3nccc(-c4cnc(N5CC[C@H](F)C5)c(C#N)c4)n3)c2)CC1 [DMX-1, 3-{4-[5-Cyano-6-((S)-3-fluoro-pyrrolidin-1-yl)-pyridin-3-yl]-pyrimidin-2-ylamino}-N-(1-methyl-piperidin-4-yl)-benzamide] | < 100 nM | < 30 nM |  |
| N#Cc1cc(-c2ccnc(Nc3cccc(C(N)=O)c3)n2)cnc1N1CCCC1 [DMX-2, 3-[4-(5-Cyano-6-pyrrolidin-1-yl-pyridin-3-yl)-pyrimidin-2-ylamino]-benzamide] | < 30 nM | < 30 nM |  |
| CN1CCN(c2ccc(Nc3nccc(-c4cnc(N5CCCC5)c(C#N)c4)n3)cn2)CC1 [DMX-3, 5-{2-[6-(4-Methyl-piperazin-1-yl)-pyridin-3-ylamino]-pyrimidin-4-yl}-2-pyrrolidin-1-yl-nicotinonitrile] | < 15 nM | < 15 nM |  |
| N#Cc1cc(-c2ccnc(Nc3ccc(N4CCOCC4)cc3)n2)cnc1N1CCCC1 [DMX-5, 5-[2-(4-Morpholin-4-yl-phenylamino)-pyrimidin-4-yl]-2-pyrrolidin-1-yl-nicotinonitrile] | < 30 nM | < 15 nM |  |
| CN1CCN(C(=O)c2cccc(Nc3nccc(-c4cnc(N5CC[C@H](F)C5)c(C#N)c4)n3)c2)CC1 [DMX-6, 2-((S)-3-Fluoro-pyrrolidin-1-yl)-5-{2-[3-(4-methyl-piperazine-1-carbonyl)-phenylamino]-pyrimidin-4-yl}-nicotinonitrile] | < 100 nM | < 30 nM |  |
| Cn1cc(Nc2nccc(-c3cnc(N4CC[C@H](F)C4)c(C#N)c3)n2)cn1 [DMX-7, 2-((S)-3-Fluoro-pyrrolidin-1-yl)-5-[2-(1-methyl-1H-pyrazol-4-ylamino)-pyrimidin-4-yl]-nicotinonitrile] | < 30 nM | < 30 nM |  |
| CC(=O)Nc1ccc(Nc2nccc(-c3cnc(N4CC[C@H](F)C4)c(C#N)c3)n2)cn1 [DMX-8, N-(5-{4-[5-Cyano-6-((S)-3-fluoro-pyrrolidin-1-yl)-pyridin-3-yl]-pyrimidin-2-ylamino}-pyridin-2-yl)-acetamide] | < 30 nM | < 30 nM |  |
| CN1CCC(Nc2ccc(Nc3nccc(-c4cnc(N5CC[C@H](F)C5)c(C#N)c4)n3)cn2)CC1 [DMX-9, 2-((S)-3-Fluoro-pyrrolidin-1-yl)-5-{2-[6-(1-methyl-piperidin-4-ylamino)-pyridin-3-ylamino]-pyrimidin-4-yl}-nicotinonitrile] | < 15 nM | < 30 nM |  |
| N#Cc1cc(-c2ccnc(Nc3ccc(NC4CCNCC4)nc3)n2)cnc1N1CC[C@H](F)C1 [DMX-10, 2-((S)-3-Fluoro-pyrrolidin-1-yl)-5-{2-[6-(piperidin-4-ylamino)-pyridin-3-ylamino]-pyrimidin-4-yl}-nicotinonitrile] | < 30 nM | < 30 nM |  |
| N#Cc1cc(-c2ccnc(Nc3cccc(C(=O)NC4CCNCC4)c3)n2)cnc1N1CC[C@H](F)C1 [DMX-11, 3-{4-[5-Cyano-6-((S)-3-fluoro-pyrrolidin-1-yl)-pyridin-3-yl]-pyrimidin-2-ylamino}-N-piperidin-4-yl-benzamide] | < 30 nM | < 30 nM |  |
| CN1CCC(NC(=O)c2cccc(Nc3nccc(-c4cnc(N5CC[C@H](O)C5)c(C#N)c4)n3)c2)CC1 [DMX-12, 3-{4-[5-Cyano-6-((S)-3-hydroxy-pyrrolidin-1-yl)-pyridin-3-yl]-pyrimidin-2-ylamino}-N-(1-methyl-piperidin-4-yl)-benzamide] | < 1000 nM | < 100 nM |  |
| CN1CCC(Nc2ccc(Nc3nccc(-c4cnc(N5CC[C@H](O)C5)c(C#N)c4)n3)cn2)CC1 [DMX-13, 2-((S)-3-Hydroxy-pyrrolidin-1-yl)-5-{2-[6-(1-methyl-piperidin-4-ylamino)-pyridin-3-ylamino]-pyrimidin-4-yl}-nicotinonitrile] | < 100 nM | < 100 nM |  |
| CN1CCC(NC(=O)c2cccc(Nc3nccc(-c4cnc(N5CCC(F)(F)C5)c(C#N)c4)n3)c2)CC1 [DMX-14, 3-{4-[5-Cyano-6-(3,3-difluoro-pyrrolidin-1-yl)-pyridin-3-yl]-pyrimidin-2-ylamino}-N-(1-methyl-piperidin-4-yl)-benzamide] | < 100 nM | < 100 nM |  |
| CN1CCC(Nc2ccc(Nc3nccc(-c4cnc(N5CCC(F)(F)C5)c(C#N)c4)n3)cn2)CC1 [DMX-15, 2-(3,3-Difluoro-pyrrolidin-1-yl)-5-{2-[6-(1-methyl-piperidin-4-ylamino)-pyridin-3-ylamino]-pyrimidin-4-yl}-nicotinonitrile] | < 100 nM | < 30 nM |  |
| Cn1cc(Nc2nccc(-c3cnc(N4CC[C@H](O)C4)c(C#N)c3)n2)cn1 [DMX-16, 2-((S)-3-Hydroxy-pyrrolidin-1-yl)-5-[2-(1-methyl-1H-pyrazol-4-ylamino)-pyrimidin-4-yl]-nicotinonitrile] | < 100 nM | < 100 nM |  |
| N#Cc1cc(-c2ccnc(Nc3ccc(NC(=O)CN4CCOCC4)nc3)n2)cnc1N1CC[C@H](F)C1 [DMX-17, N-(5-{4-[5-Cyano-6-((S)-3-fluoro-pyrrolidin-1-yl)-pyridin-3-yl]-pyrimidin-2-ylamino}-pyridin-2-yl)-2-morpholin-4-yl-acetamide] | < 30 nM | < 30 nM |  |
| CC(C(=O)Nc1ccc(Nc2nccc(-c3cnc(N4CC[C@H](F)C4)c(C#N)c3)n2)cn1)N(C)C (stereo partly drawn) [DMX-18, N-(5-{4-[5-Cyano-6-((S)-3-fluoro-pyrrolidin-1-yl)-pyridin-3-yl]-pyrimidin-2-ylamino}-pyridin-2-yl)-2-dimethylamino-propionamide] | < 100 nM | < 100 nM |  |
| N#Cc1cc(-c2ccnc(Nc3ccc(NC(=O)C4CC4)nc3)n2)cnc1N1CC[C@H](F)C1 [DMX-19, Cyclopropanecarboxylic acid (5-{4-[5-cyano-6-((S)-3-fluoro-pyrrolidin-1-yl)-pyridin-3-yl]-pyrimidin-2-ylamino}-pyridin-2-yl)-amide] | < 100 nM | < 100 nM |  |

— patent US9433622B2, “Pyrimidine compounds useful in the treatment of diseases mediated by IKKE and/or TBK1 mechanisms” (DOMAINEX LIMITED, priority 2013, dated 2016)
